For assay [1], the target named is RAC-alpha serine/threonine-protein kinase (Homo sapiens, UniProt P31749). Description: AKT Enzyme Assay: A TTP Mosquito liquid handling instrument is used to place 125 nl of the appropriate concentration of inhibitor in 100% DMSO (for a dose response curve calculation) into each well of a 384-well plate. To this reaction components are added to a final volume of 12.5 µl: 0.1 ng/µl His-AKT (Full Length), (Invitrogen, Part # P2999, Lot #641228C). 160 uM ATP (Fluka, 02055) 1 mM DTT (Sigma, D0632) 1 mM MgCl2 (Sigma, M1028) 1 µM substrate peptide (sequence FITC-AHA-[…]-NH2), synthesized by Tufts Peptide Synthesis service. 100 mM HEPES pH 7.5 (Calbiochem, 391338)0.015% Brij-35 (Sigma, B4184)The reaction is incubated for 90 min at 25 C, and then stopped by the addition of 70 µl of Stop buffer (100 mM HEPES pH 7.5, 0.015% Brij-35, 10 mM EDTA (Sigma, E7889)).The plate is read on a Caliper LC 3000 in an Off-Chip mobility shift assay format, using the following parameters for a 12-sipper chip: screening pressure -2.3 psi, upstream voltage -500, and downstream voltage -3000.
RAC-alpha serine/threonine-protein kinase, sequence (P31749 whole entry): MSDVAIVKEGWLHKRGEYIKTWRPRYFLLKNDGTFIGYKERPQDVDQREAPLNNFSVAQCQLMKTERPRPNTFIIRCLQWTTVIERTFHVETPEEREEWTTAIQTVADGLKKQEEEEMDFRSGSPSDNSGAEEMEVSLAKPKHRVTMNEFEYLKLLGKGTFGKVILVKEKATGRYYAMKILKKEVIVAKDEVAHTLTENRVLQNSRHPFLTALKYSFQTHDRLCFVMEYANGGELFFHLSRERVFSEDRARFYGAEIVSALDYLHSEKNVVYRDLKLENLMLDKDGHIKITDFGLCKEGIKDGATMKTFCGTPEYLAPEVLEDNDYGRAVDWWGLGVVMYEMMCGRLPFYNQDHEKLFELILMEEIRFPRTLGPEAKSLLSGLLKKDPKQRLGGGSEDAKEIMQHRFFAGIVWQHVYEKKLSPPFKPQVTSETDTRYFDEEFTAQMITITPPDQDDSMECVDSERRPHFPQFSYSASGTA

Assay [2] addresses Ribosomal protein S6 kinase beta-1 (Homo sapiens, UniProt P23443, T412E). The assay can be described thus: P70S6K Enzyme Assay: P70S6K inhibitor compounds are diluted and plated in 96 well plates. A reaction mixture including the following components is then added to the compound plate to initiate the enzyme reaction; P70S6K (3 nM, T412E mutant, Millipore) is mixed with 24 uM ATP in an assay buffer containing 100 mM Hepes (pH 7.5), 5 mM MgCl2, 1 mM DTT, 0.015% Brij and 1 uM of the substrate peptide FITC-AHA-[…]-OH (derived from the S6 ribosomal protein sequence, FITC=fluorescein isothiocyanate, AHA=6-aminohexanoic acid). The reaction is incubated for 90 min at 25° C., before the addition of 10 mM EDTA to stop the reaction. The proportion of substrate and product (phosphorylated) peptide is analysed on a Caliper Life Sciences Lab Chip 3000, using a pressure of -1.4 psi, and upstream and downstream voltages of -3000 and -700 respectively. Product peaks are resolved before substrate peaks on the resulting chromatograms.

pIC50: −log10 of the molar value.

Ribosomal protein S6 kinase beta-1, sequence (P23443 whole entry T412E): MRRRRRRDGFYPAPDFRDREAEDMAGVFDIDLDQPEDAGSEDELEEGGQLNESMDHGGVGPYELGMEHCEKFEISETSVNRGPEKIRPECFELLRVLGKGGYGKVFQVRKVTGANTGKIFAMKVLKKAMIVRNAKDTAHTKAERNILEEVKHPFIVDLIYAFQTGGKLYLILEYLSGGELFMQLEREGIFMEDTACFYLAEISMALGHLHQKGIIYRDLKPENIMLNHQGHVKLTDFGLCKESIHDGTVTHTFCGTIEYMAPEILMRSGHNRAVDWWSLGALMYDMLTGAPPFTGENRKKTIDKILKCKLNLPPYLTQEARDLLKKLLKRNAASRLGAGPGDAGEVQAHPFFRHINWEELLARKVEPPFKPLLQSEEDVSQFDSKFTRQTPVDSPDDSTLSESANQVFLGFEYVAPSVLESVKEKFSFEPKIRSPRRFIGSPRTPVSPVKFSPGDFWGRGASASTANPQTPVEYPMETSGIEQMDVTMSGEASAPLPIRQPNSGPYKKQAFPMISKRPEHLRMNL

On to `CCc1c(N)ncnc1N1CCC(c2nc(-c3cccc(Cl)n3)cn2CCN2CCC2)CC1`, for which the pIC50 was 6.11 in assay [1] and 7.24 in assay [2].
